Assays:
[1] = test system: NZB/W F1 lupus-prone mice; assay: Serum BUN and creatinine (renal function) in NZB/W F1 mice; type: in vivo, mouse; conditions: 120 mg/kg by gavage daily; week 34; vs disease control mice
Experimental: (§1) Female NZB/W F1 mice were purchased from the Animal Center of the National Taiwan University (Taipei, Taiwan, ROC) and, at 12 weeks of age, were divided into two groups, one of which was given normal saline and served as the disease control, while the other was given 120 mg/kg body weight of EGCG (Ryss Lab, Inc., CA, USA) (this dose is a slight modification of those used in previous in vivo studies) by gavage daily till sacrificed at 34-weeks-old. 8-Week-old NZB/W F1 female mice (prior to onset of autoantibody production) were used as normal controls. Urine samples were collected in metabolic cages every 2 weeks and urine protein levels were measured, and serum samples were used to measure serum levels of blood urea nitrogen (BUN) and creatinine (Cr) as described previously (Ka, S. M. et al. Decoy receptor 3 ameliorates an autoimmune crescentic glomerulonephritis model in mice. J Am Soc Nephrol 18:2473-2485; 2007). All animal experiments were performed upon the ethical approval of the Institutional Animal Care and Use Committee of the National Defense Medical Center, Taiwan and according to the ethical rules in the NIH Guide for the Care and Use of Laboratory Animals.

[2] = test system: NZB/W F1 lupus-prone mice; assay: Kidney histopathological evaluation (H&E); type: in vivo, mouse; conditions: 120 mg/kg by gavage daily; week 34; H&E kidney sections; vs disease control mice
Experimental: as §1, with “Animals. Formalin-fixed and paraffin-embedded renal sections were prepared for pathologic evaluation.” for “Animals.”

[3] = test system: superoxide anion; assay: Kidney in-situ ROS production by dihydroethidium (DHE) labeling; type: in vivo, mouse; conditions: 120 mg/kg by gavage daily, week 34
Experimental: as §1, with “[…] Kidney in situ superoxide anion production was determined by dihydroethidium (DHE) labeling. Fluorescent images” for “All animal experiments”, “quantified by counting” for “performed upon”, “percentage” for “ethical approval”, “positive nuclei” for “the Institutional Animal Care and Use Committee of the National Defense Medical Center, Taiwan and according to the ethical rules”, “total nuclei per kidney cross-section. Superoxide anion levels in serum and kidney tissues were measured as described previously and” for “NIH Guide for”, “results expressed as reactive luminescence units (RLU) per 15 min per milligram dry weight (i.e., RLU/15 min/mg dry weight).” for “Care and Use of Laboratory Animals.”

[4] = test system: NAD(P)H oxidase subunit p47phox; assay: Western blot of cytosolic p47phox in kidney; type: in vivo, mouse; conditions: 120 mg/kg by gavage daily, week 34, increase seen in disease control
Experimental: as §1, with “Animals. […] Antibodies to histone H3 (Cell Signaling) or β-actin (Santa Cruz) were used as internal controls for the nuclear and cytosolic target proteins, respectively.” for “Animals.”

[5] = test system: CD4+CD25+ Treg cells; assay: Treg cell functional assay (3H-thymidine proliferation, cells from treated mice); type: cell-based, mouse

How did the “serum levels of BUN” value [1] turn out when Epigallocatechin-3-gallate [EGCG] was run?
The value was “significantly lower”.

What about the “serum levels of Cr” value [1] of the same substance?
Its value is “significantly lower”.

What about the “severe renal lesions (glomerular proliferation, crescents, interstitial inflammation, fibrosis)” value [2] of the same substance?
Its value is “greatly reduced”.

And the “DHE fluorescence (in-situ ROS production in renal tissue)” value [3]?
Its value is “very low”.

And the “levels of NAD(P)H oxidase subunit p47phox” value [4]?
Its value is “abolished”.

And the “proliferation of Treg cells incubated alone following anti-CD3 antibody stimulation” value ([5]; Treg cells from EGCG-treated mice)?
The value was “did not proliferate”.

And the “inhibition of responder T cell proliferation by added Treg cells (Treg cell activity)” value ([5]; Treg cells from EGCG-treated mice vs Treg cells from disease control mice, titration)?
The value was “much greater”.

And the “proliferation of responder T cells incubated alone following anti-CD3 antibody stimulation” value ([5]; responder T cells from EGCG-treated vs disease control mice)?
The value was “proliferated, but to an equal extent”.
